Drawing on ChEMBL document CHEMBL1143699, “Chemical and biological effects of substitution of the 2-position of ring-expanded ('fat') nucleosides containing the imidazo[4,5-e][1,3]diazepine-4,8-dione ring system: the role of electronic and steric factors on glycosidic bond stability and anti-HCV activity” (Bioorg Med Chem, 2007), this text covers Activity and Inhibition for three compounds.

Tested on in one series: not listed separately
Put plainly: Cytotoxicity against Huh7 cells relative to control. It counts as cell-based. The following applies: human, huh-7.
In the case of `COc1ccc(-c2nc3c(=O)nc(N)[nH]c(=O)c3n2[C@@H]2O[C@H](CO)[C@@H](O)[C@H]2O)cc1`, the Activity was found to be 109.8%.

Compound `COc1cccc(-c2nc3c(=O)nc(N)[nH]c(=O)c3n2[C@@H]2O[C@H](CO)[C@@H](O)[C@H]2O)c1` registered an Activity of 97.2%.

The compound `Nc1nc(=O)c2nc(-c3ccc(F)cc3)n([C@@H]3O[C@H](CO)[C@@H](O)[C@H]3O)c2c(=O)[nH]1` came in with an Activity of 108.6%.

The test system of another series is Hepatitis C virus. Put plainly: Antiviral activity against Hepatitis C virus infected Huh7 cells assessed as RNA replicon.
Conditions: not given
Format: functional, Hepacivirus hominis, Huh-7. In general terms: In antiviral work, replicon cells carry a viral genome segment that copies itself.
What is called Inhibition is the drop in the measured response relative to a control, in per cent. For the compound `COc1ccc(-c2nc3c(=O)nc(N)[nH]c(=O)c3n2[C@@H]2O[C@H](CO)[C@@H](O)[C@H]2O)cc1`, the Inhibition was found to be 9.5%.

In the case of `COc1cccc(-c2nc3c(=O)nc(N)[nH]c(=O)c3n2[C@@H]2O[C@H](CO)[C@@H](O)[C@H]2O)c1`, the Inhibition is 31.8%.

As for `Nc1nc(=O)c2nc(-c3ccc(F)cc3)n([C@@H]3O[C@H](CO)[C@@H](O)[C@H]3O)c2c(=O)[nH]1`, the Inhibition is listed as 0%.
